Our source for the inhibition in vivo values is ChEMBL document CHEMBL3244348, “Antiallergic agents. Xanthone-2,7-dicarboxylic acid derivatives” (1977).

The assay concerns Rattus norvegicus. Put plainly: Antiallergic activity in homocytotropic antiovalbumin antiserum-injected Sprague-Dawley rat assessed as inhibition of passive cutaneous anaphylaxis wheal reaction at 100 mg/kg, po administered 1 hr prior to ovalbumin challenge measured 20 mins after antigen challenge. The format is functional.

Each structure is given as a SMILES string.

One may read the inhibition in vivo as the change of the read-out against control, counted positive when it falls. `O=C(O)c1ccc2oc3ccc(C(=O)O)cc3c(=O)c2c1`: the inhibition in vivo at 100 mg/kg amounted to 1%.
As for `CCOC(=O)c1ccc2oc3ccc(C(=O)OCC)cc3c(=O)c2c1`, the inhibition in vivo at 100 mg/kg came to 8%.
Regarding `NC(=O)c1ccc2oc3ccc(C(N)=O)cc3c(=O)c2c1`, the inhibition in vivo at 100 mg/kg stood at 34%.
Regarding `CNC(=O)c1ccc2oc3ccc(C(=O)NC)cc3c(=O)c2c1`, the inhibition in vivo at 100 mg/kg stood at 19%.
With `CCCNC(=O)c1ccc2oc3ccc(C(=O)NCCC)cc3c(=O)c2c1` the figure was 19%; with `COCCOCCCNC(=O)c1ccc2oc3ccc(C(=O)NCCCOCCOC)cc3c(=O)c2c1`, 19%.
With `CN(C)C(=O)c1ccc2oc3ccc(C(=O)N(C)C)cc3c(=O)c2c1` the figure was 69%.
In the case of `CCN(CC)C(=O)c1ccc2oc3ccc(C(=O)N(CC)CC)cc3c(=O)c2c1`, the inhibition in vivo at 100 mg/kg worked out at 53%.
As to `O=C(c1ccc2oc3ccc(C(=O)N(C4CCCCC4)C4CCCCC4)cc3c(=O)c2c1)N(C1CCCCC1)C1CCCCC1`, the inhibition in vivo at 100 mg/kg was 42%.
`C=CCN(CC=C)C(=O)c1ccc2oc3ccc(C(=O)N(CC=C)CC=C)cc3c(=O)c2c1`: the inhibition in vivo at 100 mg/kg stood at 51%.
Turning to `O=C(c1ccc2oc3ccc(C(=O)N4CCCCC4)cc3c(=O)c2c1)N1CCCCC1`, the inhibition in vivo at 100 mg/kg is 57%.
The value for `O=C(c1ccc2oc3ccc(C(=O)N4CC5CCC(CC5)C4)cc3c(=O)c2c1)N1CC2CCC(CC2)C1` was 48%; that for `O=C(c1ccc2oc3ccc(C(=O)N4CCOCC4)cc3c(=O)c2c1)N1CCOCC1` was 42%.
